Test [1] deals with T1, BRN2 (Homo sapiens, UniProt P20265).
T1 sequence (P20265 1-443): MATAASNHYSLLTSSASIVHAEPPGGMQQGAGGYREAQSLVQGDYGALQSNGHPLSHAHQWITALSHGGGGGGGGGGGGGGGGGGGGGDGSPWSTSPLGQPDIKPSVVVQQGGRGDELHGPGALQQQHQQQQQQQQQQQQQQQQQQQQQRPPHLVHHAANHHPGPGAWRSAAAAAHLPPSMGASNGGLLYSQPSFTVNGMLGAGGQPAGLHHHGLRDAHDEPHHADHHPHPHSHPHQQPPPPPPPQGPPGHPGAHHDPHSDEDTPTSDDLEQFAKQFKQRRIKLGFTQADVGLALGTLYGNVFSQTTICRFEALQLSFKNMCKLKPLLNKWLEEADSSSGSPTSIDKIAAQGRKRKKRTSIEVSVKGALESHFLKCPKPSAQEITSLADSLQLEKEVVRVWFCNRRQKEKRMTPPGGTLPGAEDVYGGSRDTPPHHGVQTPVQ
Put plainly: Drug Affinity Responsive Target Stability (DARTS) assay. The test is classed as binding. More on the design: endogenous in cells; host or cells: 42D^ENZR cells. The following applies: 42D^ENZR cell lysate, yes/no direct interaction with BRN2. The procedure: This in cell assay provides a yes/no answer to direct interaction between BRN2 inhibitor and protein. • i) Prepare and place the following on ice: • Pronase • TNC 10× • −500 mM Tris-HCl (pH 8.0) • −500 mM NaCl, 100 mM CaCl2 • DMSO • Drug • 10 mL NP40+Protease inhibitor+Phosphatase inhibitor solution (can store in 4° C. and use for up to 4 weeks): • −2 mL NP40 5× • −8 mL ddH2O • −1 PhosphoSTOP™ pill • −200 uL protease inhibitor 50×
2) Remove the growth medium from the cell plate (42D^ENZR) and add 10 mL of cold PBS/vanadate.
3) Scrape the cells. Remove the PBS-cell solution and add in a falcon tube.
4) Name a new 1.5 ml Eppendorf tube and put on ice to pre-chill.
5) Centrifuge the cells at 1500 for 5 minutes at 4° C. Remove supernatant and re-suspend the cells in 600 uL NP40 lysis buffer by pipetting up and down. If the cell pellet is small use less volume, for example 300 μl)
6) Transfer the lysing cells into the pre-chilled Eppendorf tube. Incubate on ice for 20 minutes. If not continuing the DARTS on the same day, you can put the lysate in −30 and work on it later.
7) Centrifuge the tube at maximum speed for 25-30 minutes at 4° C.
8) Discard the pellet (either transfer the supernatant in a new tube or just take out the pellet). […]
20) The samples are ready for Western blot gel running. […]

In test [2] the target is T1, BRN2. Description: BLI binding.

Molecules are shown by their SMILES.

On to `FC(F)(F)c1ccc2cc(-c3csc(-c4ccco4)n3)oc2c1` [VPC-18-51, 2-(Furan-2-yl)-4-(6-(trifluoromethyl)benzofuran-2-yl)thiazole], for which the DARTS binding entry on BRN2 [1] is on record as “binding”. Also, the BLI binding result on BRN2 [2] is on record as “binding”.

For the compound `Clc1cc2cc(-c3csc(-c4ccc[nH]4)n3)oc2cc1Cl` [VPC-18-142], on BRN2 [1], the DARTS binding entry is “binding”. At BRN2 [2], the BLI binding result is “binding”.
